Experimental data from paper PMC9367672, “In vitro differences in toddalolactone metabolism in various species and its effect on cytochrome P450 expression” (Pharmaceutical Biology, 2022).

Target: CYP3A5 (Homo sapiens, UniProt P20815)
Assay: Reaction phenotyping with recombinant human CYP3A5
Type: in vitro ADME
Design: purchased Corning Life Sciences (Corning, MA); host or cells: Saccharomyces cerevisiae
Details: CYP3A5 15 nM, 37 °C, 60 min; P4 main metabolite
Method: The CYP reaction system (200 μL) consisted of 0.1 M potassium phosphate buffer (pH 7.4), an NADPH-generating system (1 mM NADPH, 10 mM G-6-P, 1 unit/mL G-6-PD, 4 mM MgCl2), and liver microsomes or recombinant human microsomes (supersomes). Each of the in vitro enzymatic assays using liver microsomes was linear with respect to incubation time and amount of protein. After a pre-incubation at 37 °C for 3 min, the reactions were initiated by adding NADP^+. After incubating for 60 min, the reactions were quenched by adding 200 μL of ice-cold acetonitrile. Samples were centrifuged at 18,000 g for 15 min at 4 °C and 10 μL of supernatant was analyzed using an HPLC system. NADPH or CYP enzyme sources were not used in the control group to ensure that the metabolic reactions were CYP- and NADPH-dependent. All incubation assays were completed in triplicate. The data are presented as mean ± standard deviation (SD).
Thirteen cDNA-expressed human CYP isoforms (CYP1A1, CYP1A2, CYP2A6, CYP2B6, CYP2C8, CYP3A4, CYP2C19, CYP3A5, CYP1B1, CYP2C9, CYP2D6, CYP2E1 and CYP4F2) were used to identify the isoform(s) involved in the biotransformation of toddalolactone. Toddalolactone (10 μM) was incubated with each recombinant CYP (15 nM) for 60 min at 37 °C and metabolites were identified by HPLC.

Chain of CYP3A5 (P20815 whole entry): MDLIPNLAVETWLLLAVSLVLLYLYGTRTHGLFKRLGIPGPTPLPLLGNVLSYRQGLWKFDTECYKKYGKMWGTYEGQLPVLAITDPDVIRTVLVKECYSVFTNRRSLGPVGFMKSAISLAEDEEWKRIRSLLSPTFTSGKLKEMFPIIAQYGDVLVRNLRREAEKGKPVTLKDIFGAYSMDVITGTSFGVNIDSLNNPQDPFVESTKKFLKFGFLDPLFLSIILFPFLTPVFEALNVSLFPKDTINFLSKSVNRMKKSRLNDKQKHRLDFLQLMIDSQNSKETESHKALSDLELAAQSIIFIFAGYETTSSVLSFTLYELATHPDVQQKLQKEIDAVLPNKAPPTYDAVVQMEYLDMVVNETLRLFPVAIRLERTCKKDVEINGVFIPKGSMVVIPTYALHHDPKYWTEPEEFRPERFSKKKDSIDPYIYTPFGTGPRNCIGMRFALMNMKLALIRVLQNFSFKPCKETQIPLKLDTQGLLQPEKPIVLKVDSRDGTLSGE

Structure (SMILES): COc1cc2oc(=O)ccc2c(OC)c1C[C@@H](O)C(C)(C)O [toddalolactone]
- catalysis of toddalolactone metabolism by rhCYP isoform: predominantly catalyzed
